From patent publication US4798892A, “2-hydroxypropylamine heteroaryl ester derivatives” (priority 1986, dated 1989)
Structures can show the parent of a compound that is named as a salt.

Experiments:
[1] = Enzymatic hydrolysis of beta blockers by dog blood (procedure C); format: in vitro ADME; details: dog, blood, 37° C.; for remaining at 1 h: read-out: Percent drug remaining, dog blood, 1 HR; for remaining at 2 h: read-out: Percent drug remaining, dog blood, 2 HR
Procedure: (§1) Chemicals--Acetonitrile was "HPLC" grade. Distilled water was used to dissolve the compounds and 0.01N HCl was used to dissolve compounds requiring an acidic pH for dissolution.
(§2) Enzyme Source--Fresh aqueous humor was collected from eyes of dogs using a 23-gauge needle while fresh dog blood was collected into heparinized Vacutainer tubes. Fresh liver was homogenized in 0.9% NaCl using a Potter-Elvehjem Teflon pestle and glass homogenizer making a 25% (W/V) homogenate.
(§3) Incubation Condition--A 0.5 ml aliquot of dog aqueous humor, blood or liver homogenate was incubated with 12.5 μg (0.5 ml) of beta blocker in a Dubnoff shaking metabolic incubator at 37° C. for 60 and 120 min. Denatured tissue controls were prepared by adding 2.0 ml of acetonitrile into 0.5 ml of aqueous humor, blood or liver homogenate to destroy esterase activities prior to addition of the beta blockers. The controls were then incubated at 37° C. for 120 min. After 60 and 120 min, the incubations were terminated by addition of 2 ml of acetonitrile and immediately mixed by a Vortex® to stop esterase activities.
(§4) Sample Processing and Data Analyses--All samples were centrifuged at 4000 RPM for 10 min to sediment denatured proteins. The resultant supernatants were transferred to WISP® vials and analyzed using an HPLC assay developed for beta blockers. The hydrolysis of beta blockers by aqueous humor, blood and liver homogenate was determined by disappearance of the compounds. The extent of enzymatic hydrolysis by each tissue was determined by comparing the amount of each compound (absolute peak area) recovered at each time point to the amount of each compound (absolute peak area) in denatured tissue control and aqueous control samples. The results of these experiments are shown in Tabe III.

[2] = Enzymatic hydrolysis of beta blockers by dog liver homogenate (procedure C); format: in vitro ADME; details: dog, liver homogenate, 37° C.; for remaining at 1 h: read-out: Percent drug remaining, dog liver homogenate, 1 HR; for remaining at 2 h: read-out: Percent drug remaining, dog liver homogenate, 2 HR
Procedure: as §1, §2, §3, §4

[3] = Enzymatic hydrolysis of beta blockers by dog aqueous humor (procedure C); format: in vitro ADME; details: for remaining at 1 h / remaining at 2 h: 37° C.; for remaining at 1 h: read-out: Percent drug remaining, dog aqueous humor, 1 HR; for remaining at 2 h: read-out: Percent drug remaining, dog aqueous humor, 2 HR
Procedure: as §1, §2, §3, §4

[4] = tested on: beta adrenergic receptor (guinea pig trachea vs right atria); assay: Degree of cardioselectivity in vitro, KB trachea/KB atria; details: Table I; ratio greater than one indicates cardioselectivity
Procedure: Each tissue was suspended between a fixed glass rod and a Statham Universal Transducer connected to a Beckman recorder. Atria were allowed to beat spontaneously under a loading tension of approximately 0.5 gm. Intrinsic depressant or stimulant activity was determined for each compound by progressively increasing concentrations in the tissue baths at 60-minute intervals. Tissues were not washed between increments. The maximum concentration showing little or no cardiodepressant activity was chosen for blockade experiments. Changes in rate in response to isoproterenol, a standard β-receptor agonist, were measured in the absence and presence of test compounds. Spiral strips of guinea pig trachea were suspended under 5 gm resting tension and incubated with phentolamine, tropolone and cocaine. Active tension was generated by addition of carbachol (3.0×10^-7 M) and decreases in tension in response to isoproterenol were quantitated. Cumulative concentration-response curves were produced with isoproterenol both before and after 60-minute incubation of test compounds with atria and trachea. […] The blocking potency of test compounds was estimated by computing pA2 values (-log […]) by the method of Furchgott, the Pharmacological Differentiation of Adrenergie Receptors, Ann. […] The degree of cardioselectivity was estimated from the ratio, KB trachea/KB atria (10^(pA.sbsp.2^atria-pA.sbsp.2^trachea)). A ratio greater than one indicates cardioselectivity. Test drugs were dissolved in distilled water and added to the bath (30 ml) in a volume of 10 or 100 μl.

[5] = biological target: T1, beta adrenergic receptor (guinea pig right atria) (Cavia porcellus, UniProt H0W3H1); assay: Beta-blocking activity in vitro, guinea pig right atria (blockade of isoproterenol rate response); details: Table I; guinea pig right atria, isoproterenol agonist, 60-minute incubation, 37° C.; read-out: PA2 Rt. Atria (converted)
T1 construct: guinea pig right atria and guinea pig tracheal strips mounted in a tissue bath; from tissue; host or cells: guinea pig right atria, spontaneously beating

[6] = Half-lives of beta blockers in dog whole blood (procedure D); format: in vitro ADME; details: 37° C., read-out: T1/2 dog blood
Procedure: (§5) The rate of disappearance of a compound is expressed as the half-life (T1/2), which is the time period in which one half of the initial amount of compound tested disappears. In each experiment, 1 ml of a solution containing 50 μg of the test compound was added to 1 ml of whole blood or 1 ml of a 33% (w/v) liver homogenate. The samples were incubated in a Dubnoff shaking metabolic incubator for 2.5, 5.0, 10.0, 20.0, 30.0 and 60.0 minutes at 37° C. At the designated time periods, the test mixtures were removed from the incubator and transferred to a 0° C. ice bath. Acetonitrile (2 ml) was immediately added and the mixtures were mixed to stop enzymatic hydrolysis. Zero time samples were prepared by adding 2 ml of acetonitrile to denature the proteins prior to addition of the test compounds. After centrifugation to sediment denatured proteins, 2 ml of the supernatant was removed and analyzed by high pressure liquid chromatography, using a mobile phase of 60% acetonitrile/40% 0.05 m sodium phosphate buffer (pH 6.6), a U.V. detector and Waters u Bondapak Phenyl column. The half life of each test compound was determined graphically by plotting the decrease in concentrations as a function of time.

[7] = tested on: beta adrenergic receptor (heart rate response to isoproterenol); assay: Duration and potency of beta-blocking action in vivo, 3-hour infusion in pentobarbital-anesthetized dogs; design: species or system dog; details: Table II; for Potency: infusion rate adjusted so isoproterenol inhibition averaged about 50% at end of 3-hour infusion; for % I (Percent inhibition of heart rate response to isoproterenol): isoproterenol 0.5 μg/kg bolus, 3-hour infusion
Procedure: The duration of β-blockade was determined in vivo using pentobarbital-anesthetized dogs instrumented for measurement of heart rate using a Beckman cardiotachometer triggered electronically by a phasic aortic blood pressure signal. Both vagus nerves were severed in the cervical region and the animals were mechanically ventilated. The experimental design used employed a 3-hour infusion of test compound. Bolus doses of isoproterenol (0.5 μg/kg) were used to assess the degree of β-blockade and recovery from β-blockade after […] of the infusion. The doses were spaced at 10-minute intervals and were given before, during and following the infusion of test compounds. The infusion rate was adjusted so that at the end of the 3-hour infusion period the degree of isoproterenol inhibition averaged about 50% of control. Following termination of blocker infusion, percent recovery from β-blockade was computed and the time associated with 80% recovery estimated.

[8] = Half-lives of beta blockers in dog liver homogenate (procedure D); format: in vitro ADME; details: 33% (w/v) homogenate, 37° C., read-out: T1/2 dog liver homogenate
Procedure: as §5

[9] = Physician's Desk Reference, 35th Edition, 1981, p. 1233; cited from earlier work
[10] = after termination of 3-hour infusion

T1 sequence (H0W3H1 1-470): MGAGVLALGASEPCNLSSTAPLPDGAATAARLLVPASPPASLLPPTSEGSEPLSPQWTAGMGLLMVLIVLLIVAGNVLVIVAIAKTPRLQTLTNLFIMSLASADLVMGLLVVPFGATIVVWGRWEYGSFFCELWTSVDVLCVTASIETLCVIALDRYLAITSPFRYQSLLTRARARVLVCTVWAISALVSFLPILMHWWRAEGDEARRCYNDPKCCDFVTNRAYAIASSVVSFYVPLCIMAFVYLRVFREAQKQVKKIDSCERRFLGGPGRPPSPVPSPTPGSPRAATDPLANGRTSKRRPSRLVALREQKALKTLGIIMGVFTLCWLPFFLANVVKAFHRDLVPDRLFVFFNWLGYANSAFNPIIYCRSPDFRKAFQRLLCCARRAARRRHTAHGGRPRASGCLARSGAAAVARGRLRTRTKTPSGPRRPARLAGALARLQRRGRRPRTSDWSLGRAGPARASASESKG

| SMILES | half-life ([3]; approximate value determined by procedure C, read-out: T1/2 dog aqueous humor) [min] | metabolised at 1 h ([3]; one hour, read-out: hydrolyzed in aqueous humor after one hour) [%] | metabolised at 2 h ([3]; two hours, read-out: hydrolyzed in aqueous humor after two hours) [%] | Cardioselectivity KB (Trachea)/KB (Atria) [4] | Kb [5] [nM] | remaining at 1 h [1] [%] | remaining at 2 h [1] [%] | remaining at 1 h [2] [%] | remaining at 2 h [2] [%] | remaining at 1 h [3] [%] | remaining at 2 h [3] [%] | half-life [6] [min] | Recovery Time 80% [7, 10] [min] | Potency [7] [mg/kg/180 min] | % I (Percent inhibition of heart rate response to isoproterenol) [7] [%] | half-life [8] [min] | Recovery Time 50% [7, 10] [min] | adverse reactions to topical use [9] |
| --- | --- | --- | --- | --- | --- | --- | --- | --- | --- | --- | --- | --- | --- | --- | --- | --- | --- | --- |
| CC(C)(CNC(N)=O)NCC(O)COC(=O)c1ccccc1F (stereo not drawn) [Example X, 3-[1,1-Dimethyl-2-(aminocarbonylamino)]ethylamino-2-hydroxypropyl 2-Fluorobenzoate] |  |  |  |  | 20 | 0 | 0 | 0 | 0 | 0 | 0 | 15 | 21 | 0.7 | 49 | 2.5 |  |  |
| CCOC(=O)NCC(C)(C)NCC(O)COC(=O)c1ccccc1F (stereo not drawn) [IX, 3-[1,1-Dimethyl-2-(ethoxycarbonylamino)]ethylamino-2-hydroxypropyl 2-Fluorobenzoate Hydrochloride] |  |  |  |  | 79.4 | 0 | 0 | 0 | 0 | 0 | 0 | 8 | 8 ± 3 | 6.5 ± 1.8 | 49 ± 4 | 1 | 3 ± 1 |  |
| CC(C)(C)NC[C@H](O)COc1nsnc1N1CCOCC1 [timolol maleate] |  |  |  |  |  |  |  |  |  |  |  |  |  |  |  |  |  | bronchospasm and heart failure, as well as cardiac conduction defects |

Continued, in another order:

| half-life ([3]; approximate value determined by procedure C, read-out: T1/2 dog aqueous humor) [min] | metabolised at 1 h ([3]; one hour, read-out: hydrolyzed in aqueous humor after one hour) [%] | metabolised at 2 h ([3]; two hours, read-out: hydrolyzed in aqueous humor after two hours) [%] | Cardioselectivity KB (Trachea)/KB (Atria) [4] | Kb [5] [nM] | SMILES | remaining at 1 h [1] [%] | remaining at 2 h [1] [%] | remaining at 1 h [2] [%] | remaining at 2 h [2] [%] | remaining at 1 h [3] [%] | remaining at 2 h [3] [%] | half-life [6] [min] | Recovery Time 80% [7, 10] [min] | Potency [7] [mg/kg/180 min] | % I (Percent inhibition of heart rate response to isoproterenol) [7] [%] | half-life [8] [min] | Recovery Time 50% [7, 10] [min] | adverse reactions to topical use [9] |
| --- | --- | --- | --- | --- | --- | --- | --- | --- | --- | --- | --- | --- | --- | --- | --- | --- | --- | --- |
| 60 to 120 | 42 | 68 | 2 | 3.16 | CC(C)(CNC(=O)N1CCOCC1)NCC(O)COC(=O)c1ccccc1F (stereo not drawn) [Example II, 3-[1,1-Dimethyl-2-(1-morpholinocarbonylamino)]ethylamino-2-hydroxypropyl 2-Fluorobenzoate Hydrochloride] | 0 | 0 | 0 | 0 | 58 | 32 | 15 |  |  |  |  |  |  |
|  |  |  | 5 | 79.4 | CC(C)(CNC(=O)Nc1ccccc1)NCC(O)COC(=O)c1ccccc1F (stereo not drawn) [XII, 3-[1,1-Dimethyl-2-(phenylaminocarbonylamino)]ethylamino-2-hydroxypropyl 2-Fluorobenzoate] |  |  |  |  |  |  |  |  |  |  |  |  |  |
|  |  |  | 1 | 1 | CC(C)(CNC(=O)N1CCOCC1)NCC(O)COC(=O)c1cc(O)cc(O)c1 (stereo not drawn) [XXXVIII, 3-[1,1-Dimethyl-2-(1-morpholinocarbonylamino)]ethylamino-2-hydroxypropyl 3,5-Dihydroxybenzoate Oxalate Hemihydrate] |  |  |  |  |  |  |  |  |  |  |  |  |  |
